Laboratory results reported in US9707267B2, “Beta-turn peptidomimetic cyclic compounds for treating dry eye” (Mimetogen Pharmaceuticals, Inc., priority 2008, dated 2017).

Assays:
[1] = system: cultured rat conjunctival goblet cells; assay: Goblet cell glycoconjugate secretion, ELLA with UEA-1 (Example 2); format: cell-based; conditions: 2 hours; for Glycoconjugate Secretion, Mean ± sem: mean of rats; for Glycoconjugate Secretion, Mean ± SD: mean of rats/plates
Experimental: The culturing of conjunctival goblet cells from explant cultures was as previously described in Shatos, M. et al., “Isolation, Characterization, and Propagation of Rat Conjunctival Goblet Cells In Vitro,” IOVS 42:1455-1464 (2001), the entire content of which is incorporated herein by reference. The tissue was finely minced and individual pieces were anchored onto scored 6-well cultures dishes in 0.5 mL of complete RPMI-1640 (supplemented with 10% FBS, 2 mM glutamine and 100 μg/mL penicillin-streptomycin) and incubated at 37° C. in a humidified 5% CO2-atmosphere. Explant cultures were refed every 2 days. Within a few days, goblet cells migrated from the pieces and began to proliferate. After approximately one week, the tissue plugs were removed and the goblet cells were allowed to grow to confluence. Cells were passaged once by trypsinization of adherent cells with 0.05% trypsin-0.53 mM EDTA (pH 7.4), and plated in 8-well Laboratory Tek chamber slides (histochemistry) or in 96 well (proliferation), 24 well (secretion), or 6 well (western blots) culture plates with complete RPMI-1640 media.
To measure cell secretion, goblet cells were grown to confluence and then serum depleted for 2 hours prior to stimulation. Cells were incubated with compound D3 at 2, 10, and 50 μM, NGF at 0.1, 1 and 10 nM, and PMA at 0.1, 1, and 10 nM in serum-free RPMI for 2 hours. Goblet cell secretion was measured using an enzyme-linked lectin assay (ELLA). Briefly, an aliquot of the cell culture supernatant was transferred to a 96-well polystyrene microtiter plate in triplicate (Corning Life Sciences #2592, Fisher Scientific, Nepean, Ont). A dilution series of bovine submaxillary mucin (BSM) (Sigma, St. Louis, Mo.) was included on each plate as the standard (standard curve data and data showing that detection of BSM is linear between 0.003 and 0.1 μg not shown). The plates were coated by evaporation at 37° C. overnight. After, the plates were washed three times with wash buffer [PBS containing 0.3% BSA, 0.05% Tween-20] then blocked for nonspecific binding with PBS containing 3% BSA and 0.05% Tween-20 at 37° C. for 1 hour. The wells were rinsed three times in wash buffer, and then incubated in 2 μg/mL biotinylated UEA-1 diluted in wash buffer (Vector Labs, Burlingame, Calif.) at 37° C. for 1 hour. The wells were rinsed three times in wash buffer, and then incubated in 1 μg/mL HRP-conjugated neutravidin diluted in wash buffer (Pierce, Rockford, Ill.) at 37° C. for 1 hour. After the wells were rinsed three times in wash buffer, the color development was performed with TMB (Promega, Madison, Wis.) and stopped with 0.5N Sulfuric acid. The absorbance was read at 450 nm on a Benchmark Plus (Biorad). The goblet cells remaining in the culture wells were either scraped in RIPA buffer [1% TritonX-100, 20 mM Tris-HCl pH 7.5, 150 mM NaCl, 1.5 mM MgCl2, 1% Na deoxycholate, 1 mM EGTA, 1 mM EDTA, 0.1% SDS, 10% glycerol, 1 mM Na vanadate, 10 mM Na fluoride, 10 mM Na pyrophosphate, complete mini EDTA-free protease inhibitors (Roche Applied Science, Indianapolis, Ind.)] or 1M Tris-buffer (pH 7.5), collected and sonicated. The amount of protein in the cell homogenate was analyzed using the Bradford protein assay kit using a dilution series of bovine serum albumin (BSA) as the standard (BioRad, Montreal, PQ). Glycoconjugate secretion was normalized to total protein in the homogenate. Data was then expressed as fold increase above basal. […]

cultured goblet cells = assay: Goblet cell proliferation, Alamar Blue (Example 2); format: cell-based, rat; conditions: serum-free media
Experimental: The culturing of conjunctival goblet cells from explant cultures was as previously described in Shatos, M. et al., “Isolation, Characterization, and Propagation of Rat Conjunctival Goblet Cells In Vitro,” IOVS 42:1455-1464 (2001), the entire content of which is incorporated herein by reference. The tissue was finely minced and individual pieces were anchored onto scored 6-well cultures dishes in 0.5 mL of complete RPMI-1640 (supplemented with 10% FBS, 2 mM glutamine and 100 μg/mL penicillin-streptomycin) and incubated at 37° C. in a humidified 5% CO2-atmosphere. Explant cultures were refed every 2 days. Within a few days, goblet cells migrated from the pieces and began to proliferate. After approximately one week, the tissue plugs were removed and the goblet cells were allowed to grow to confluence. […]
Cell proliferation was measured using Alamar Blue from Biosource (Invitrogen Corporation, Carlsbad, Calif.) according to the manufacture's protocol. […] After 24 hours, 10% Alamar Blue was added for 6 hours and the absorbance was read at 570 and 600 nm on a Benchmark Plus (Biorad). The percentage of Alamar Blue reduction was calculated according to the manufacture's instructions. […]

## NCCCC[C@@H]1NC(=O)[C@H](CCC(=O)O)NC(=O)c2cc([N+](=O)[O-])ccc2OCCC(C(=O)NCC(=O)O)NC1=O (stereo partly shown) [Compound D3]
[1]; 2 μM, Rat 2
  Glycoconjugate Secretion: 1.25 Fold increase above basal
[1]; 2 μM, Rat 2 Plate 1
  Glycoconjugate Secretion: 2.5 μg glycoconjugate/mg total protein
[1]; 2 μM, Rat 3
  Glycoconjugate Secretion: 2.14 Fold increase above basal
[1]; 2 μM, Rat 3 Plate 1
  Glycoconjugate Secretion: 10.5 μg glycoconjugate/mg total protein
[1]; 2 μM, Rat 4
  Glycoconjugate Secretion: 1.09 Fold increase above basal
[1]; 2 μM, Rat 4 Plate 1
  Glycoconjugate Secretion: 9.3 μg glycoconjugate/mg total protein
[1]; 2 μM
  Glycoconjugate Secretion, Mean ± sem: 1.49±0.33 Fold increase above basal
  Glycoconjugate Secretion, Mean ± SD: 7.4 ± 4.3 μg glycoconjugate/mg total protein
[1]; 2 μM, listed as MIM-D3
  Glycoconjugate Secretion, Mean ± sem: 1.49 ± 0.33 Fold increase above basal
[1]; 10 μM, Rat 2
  Glycoconjugate Secretion: 1.25 Fold increase above basal
[1]; 10 μM, Rat 2 Plate 1
  Glycoconjugate Secretion: 2.5 μg glycoconjugate/mg total protein
[1]; 10 μM, Rat 3
  Glycoconjugate Secretion: 1.04 Fold increase above basal
[1]; 10 μM, Rat 3 Plate 1
  Glycoconjugate Secretion: 5.1 μg glycoconjugate/mg total protein
[1]; 10 μM, Rat 4
  Glycoconjugate Secretion: 1.35 Fold increase above basal
[1]; 10 μM, Rat 4 Plate 1
  Glycoconjugate Secretion: 11.6 μg glycoconjugate/mg total protein
[1]; 10 μM
  Glycoconjugate Secretion, Mean ± sem: 1.21 ± 0.09 Fold increase above basal
  Glycoconjugate Secretion, Mean ± SD: 6.4 ± 4.7 μg glycoconjugate/mg total protein
[1]; 50 μM, Rat 1
  Glycoconjugate Secretion: 1.38 Fold increase above basal
[1]; 50 μM, Rat 1 Plate 2
  Glycoconjugate Secretion: 5.4 μg glycoconjugate/mg total protein
[1]; 50 μM, Rat 2
  Glycoconjugate Secretion: 1.65 Fold increase above basal
[1]; 50 μM, Rat 2 Plate 1
  Glycoconjugate Secretion: 3.3 μg glycoconjugate/mg total protein
[1]; 50 μM, Rat 3
  Glycoconjugate Secretion: 1.16 Fold increase above basal
[1]; 50 μM, Rat 3 Plate 1
  Glycoconjugate Secretion: 5.7 μg glycoconjugate/mg total protein
[1]; 50 μM, Rat 4
  Glycoconjugate Secretion: 1.11 Fold increase above basal
[1]; 50 μM, Rat 4 Plate 1
  Glycoconjugate Secretion: 9.5 μg glycoconjugate/mg total protein
[1]; 50 μM
  Glycoconjugate Secretion, Mean ± sem: 1.33 ± 0.12 Fold increase above basal
  Glycoconjugate Secretion, Mean ± SD: 6.0 ± 2.6 μg glycoconjugate/mg total protein
Cultured goblet cells; concentrations up to 100 μM, by day four
  goblet cell proliferation (in words): did not stimulate goblet cell proliferation

## NGF: nerve growth factor (recombinant human), positive control
[1]; 0.1 nM, Rat 1
  Glycoconjugate Secretion: 1.49 Fold increase above basal
[1]; 0.1 nM, Rat 1 Plate 1
  Glycoconjugate Secretion: 7.6 μg glycoconjugate/mg total protein
[1]; 0.1 nM, Rat 2
  Glycoconjugate Secretion: 1.20 Fold increase above basal
[1]; 0.1 nM, Rat 2 Plate 1
  Glycoconjugate Secretion: 2.4 μg glycoconjugate/mg total protein
[1]; 0.1 nM, Rat 3
  Glycoconjugate Secretion: 0.94 Fold increase above basal
[1]; 0.1 nM, Rat 3 Plate 1
  Glycoconjugate Secretion: 4.6 μg glycoconjugate/mg total protein
[1]; 0.1 nM, Rat 4
  Glycoconjugate Secretion: 1.24 Fold increase above basal
[1]; 0.1 nM, Rat 4 Plate 1
  Glycoconjugate Secretion: 10.6 μg glycoconjugate/mg total protein
[1]; 0.1 nM
  Glycoconjugate Secretion, Mean ± sem: 1.22 ± 0.11 Fold increase above basal
  Glycoconjugate Secretion, Mean ± SD: 6.3 ± 3.6 μg glycoconjugate/mg total protein
[1]; 1 nM, Rat 1
  Glycoconjugate Secretion: 2.67 Fold increase above basal
[1]; 1 nM, Rat 1 Plate 1
  Glycoconjugate Secretion: 13.6 μg glycoconjugate/mg total protein
[1]; 1 nM, Rat 2
  Glycoconjugate Secretion: 0.85 Fold increase above basal
[1]; 1 nM, Rat 2 Plate 1
  Glycoconjugate Secretion: 1.7 μg glycoconjugate/mg total protein
[1]; 1 nM, Rat 3
  Glycoconjugate Secretion: 1.00 Fold increase above basal
[1]; 1 nM, Rat 3 Plate 1
  Glycoconjugate Secretion: 4.9 μg glycoconjugate/mg total protein
[1]; 1 nM, Rat 4
  Glycoconjugate Secretion: 1.26 Fold increase above basal
[1]; 1 nM, Rat 4 Plate 1
  Glycoconjugate Secretion: 10.8 μg glycoconjugate/mg total protein
[1]; 1 nM
  Glycoconjugate Secretion, Mean ± sem: 1.44 ± 0.42 Fold increase above basal
  Glycoconjugate Secretion, Mean ± SD: 7.8 ± 5.4 μg glycoconjugate/mg total protein
[1]; 10 nM, Rat 1
  Glycoconjugate Secretion: 1.58 Fold increase above basal
[1]; 10 nM, Rat 1 Plate 1
  Glycoconjugate Secretion: 10.4 μg glycoconjugate/mg total protein
[1]; 10 nM, Rat 1 Plate 2
  Glycoconjugate Secretion: 4.4 μg glycoconjugate/mg total protein
[1]; 10 nM, Rat 2
  Glycoconjugate Secretion: 1.49 Fold increase above basal
[1]; 10 nM, Rat 2 Plate 1
  Glycoconjugate Secretion: 3.6 μg glycoconjugate/mg total protein
[1]; 10 nM, Rat 2 Plate 2
  Glycoconjugate Secretion: 2.7 μg glycoconjugate/mg total protein
[1]; 10 nM, Rat 3
  Glycoconjugate Secretion: 1.98 Fold increase above basal
[1]; 10 nM, Rat 3 Plate 1
  Glycoconjugate Secretion: 9.7 μg glycoconjugate/mg total protein
[1]; 10 nM, Rat 4
  Glycoconjugate Secretion: 1.19 Fold increase above basal
[1]; 10 nM, Rat 4 Plate 1
  Glycoconjugate Secretion: 10.2 μg glycoconjugate/mg total protein
[1]; 10 nM
  Glycoconjugate Secretion, Mean ± sem: 1.55±0.18 Fold increase above basal
  Glycoconjugate Secretion, Mean ± SD: 6.8 ± 3.6 μg glycoconjugate/mg total protein
Cultured goblet cells; NGF 10 pM to 10 nM, up to day four
  goblet cell proliferation (in words): did not increase proliferation
